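Cultured in 96-well plates, cells were exposed to test compound for 48 hours across five concentrations. TGI: concentration producing complete growth inhibition.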
How the values were obtained:
Experiment in all cases: NCI anticancer screen, dose series, 48 h
SW-620 colon = system: SW-620 colon
A549 NSCLC = system: A549 NSCLC
UACC-62 melanoma = system: UACC-62 melanoma
SK-OV-3 ovarian = system: SK-OV-3 ovarian
NCI-H226 lung = system: NCI-H226 lung
RXF 393 renal = system: RXF 393 renal
ACHN renal = system: ACHN renal
MDA-MB-435 = system: MDA-MB-435
MDA-N = system: MDA-N
EKVX NSCLC = system: EKVX NSCLC
BT-549 breast = system: BT-549 breast
NCI-H23 lung = system: NCI-H23 lung
MCF7 breast = system: MCF7 breast
SF-539 CNS = system: SF-539 CNS

Structure (SMILES) | TGI (SW-620 colon) [µM] | TGI (A549 NSCLC) [µM] | TGI (UACC-62 melanoma) [µM] | TGI (SK-OV-3 ovarian) [µM] | TGI (NCI-H226 lung) [µM] | TGI (RXF 393 renal) [µM] | TGI (ACHN renal) [µM] | TGI (MDA-MB-435) [µM] | TGI (MDA-N) [µM] | TGI (EKVX NSCLC) [µM] | TGI (BT-549 breast) [µM] | TGI (NCI-H23 lung) [µM] | TGI (MCF7 breast) [µM] | TGI (SF-539 CNS) [µM]
Nc1ncnc2c1ncn2[C@@H]1C[C@H](NO)[C@@H](O)[C@H]1O | > 100 | > 100 | > 100 | > 100 | > 100 | > 100 | > 100 | > 100 | > 100 | > 100 | > 100 | > 100 | > 100 | > 100
COC(=O)/C=C/C(=O)Nc1cc(Cl)c(Cl)cc1CC(=O)N(C)[C@H]1CCCC[C@@H]1N1CCCC1 | 26.7 | > 54.2 | 28.4 | 37.8 | 31.7 | 17.7 | 14.6 | > 39.3 | 25.2 | 29.2 | 26.8 | 30.4 | 13.6 | 13.3
N/N=C(/CC(O)(C(F)(F)F)C(F)(F)F)c1ccccc1 | > 10 | > 10 | > 10 | > 10 | > 10 | > 10 | > 10 | > 10 | > 10 | > 10 | > 10 | > 10 | > 10 | > 10
COc1cccc(N2C(=O)C3c4[nH]c5ccc(C)cc5c4C4CCC(C)CC4C3C2=O)c1 (stereo not given) | > 100 | > 100 | > 100 | > 100 | > 100 | 47.3 | > 100 | > 100 | > 100 | > 100 | > 100 | > 100 | > 100 | > 100
Cc1ccc(C2=Nn3c(nc4sc5c(c4c3=O)CCCC5)SC2)cc1 | > 100 | > 100 | > 100 | > 100 | > 100 | > 100 | > 100 | > 100 | > 100 | > 100 | > 100 | > 100 | > 100 | > 100
CCC1(CC)C(=O)NN(C(=O)c2ccc(Cl)cc2)C1=O | > 100 | > 100 | > 100 | > 100 | > 100 | > 100 | > 100 | > 100 | > 100 | > 100 | > 100 | > 100 | > 100 | –
Oc1ccccc1-c1n[nH]c(-c2ccccc2O)n1 | > 100 | > 100 | > 100 | > 100 | > 100 | > 100 | > 100 | > 100 | > 100 | > 34 | > 100 | – | > 100 | > 100
O=C(/N=C1/OC(CN2CCOCC2)CN1C(=O)Nc1ccccc1)Nc1ccccc1 (stereo not given) | > 100 | > 100 | > 100 | > 100 | > 100 | > 100 | > 100 | > 100 | > 100 | > 100 | > 100 | > 100 | > 100 | –
CN(C(=O)c1cc2c(s1)sc1c(=O)n(C)c3ccccc3c12)c1ccccc1 | – | > 100 | > 100 | > 100 | > 100 | > 100 | 66.6 | > 100 | > 100 | > 100 | > 100 | 69.5 | > 100 | 59.8
COC(=O)/C(C#N)=C(/NCc1ccccc1)Nc1ccccc1 | > 100 | > 100 | – | > 100 | > 100 | > 100 | > 100 | > 100 | > 100 | > 100 | > 100 | > 100 | > 100 | > 100
CC(C)(C)Cc1cc(O)ccc1O | > 100 | > 100 | > 100 | > 100 | > 100 | > 100 | > 100 | > 100 | > 100 | > 100 | > 100 | > 100 | > 100 | > 100
COc1cc(/C=C2\C(=O)N(c3ccc(NC(C)=O)cc3)C(c3ccccc3)S2(=O)=O)cc(OC)c1OC (stereo not given) | > 100 | > 100 | > 100 | > 100 | > 100 | > 100 | > 100 | > 100 | > 100 | > 100 | > 100 | > 100 | > 100 | > 100
COc1cc(OC)c2nc(C)c3c(c2c1)OCC3 | > 100 | > 100 | > 100 | – | > 100 | 62.6 | > 100 | > 100 | > 100 | > 100 | > 100 | > 100 | > 100 | > 100
COc1ccc2oc(=O)c(-c3csc(-c4ccccc4)n3)cc2c1 | > 100 | > 100 | > 100 | 38 | > 100 | 59.3 | > 100 | > 100 | > 100 | > 100 | 50.2 | – | > 100 | 31.2
CCNC1=C(NC(=O)c2ccc(OC)cc2)C(=O)c2ccccc2C1=O | > 100 | > 100 | > 100 | > 100 | > 100 | 88.2 | > 100 | 31.1 | > 100 | > 100 | > 100 | > 100 | > 100 | > 100
CN(C)CCN=C1Nc2ccccc2C(=O)N2CSCC12 (stereo not given) | > 100 | > 100 | > 100 | > 100 | > 100 | > 100 | > 100 | > 100 | > 100 | > 100 | > 100 | – | > 100 | –

Structure (SMILES) | TGI (SW-620 colon) [µM] | TGI (A549 NSCLC) [µM] | TGI (UACC-62 melanoma) [µM] | TGI (SK-OV-3 ovarian) [µM] | TGI (NCI-H226 lung) [µM] | TGI (RXF 393 renal) [µM] | TGI (ACHN renal) [µM] | TGI (MDA-MB-435) [µM] | TGI (MDA-N) [µM] | TGI (EKVX NSCLC) [µM] | TGI (BT-549 breast) [µM] | TGI (NCI-H23 lung) [µM] | TGI (MCF7 breast) [µM] | TGI (SF-539 CNS) [µM]
Cc1c(-c2ccccc2)c(C#N)c2nnn(C)c(=O)n12 | > 100 | > 100 | > 100 | > 100 | > 100 | > 100 | > 100 | > 100 | > 100 | > 100 | > 100 | > 100 | > 100 | > 100
CC(C)=CC[C@H]1C[C@@]2(CC=C(C)C)C(=O)/C(=C(/O)c3ccccc3)C(=O)[C@](CC=C(C)C)(C2=O)C1(C)C | 54.9 | 23.7 | 13.6 | 24.3 | 36.2 | 24.1 | 21.8 | 26.2 | 20.1 | 20 | 35 | 73.9 | 21.5 | 48
CC1(Cc2cc3c(cc2C2(c4ccc([N+](=O)[O-])cc4)OCCO2)OCO3)OCCO1 | > 100 | > 100 | > 100 | > 100 | > 100 | > 100 | > 100 | > 100 | > 100 | > 100 | 98.9 | > 100 | > 100 | > 100
O=C1O/C(=C\C=C\CO)C=C1/C=C/CO | 45.9 | > 100 | 39.8 | > 100 | 95.8 | 38.3 | 69.5 | > 100 | 59.9 | 35.5 | 50.9 | 41.9 | > 100 | 55
CCN(CC)c1ccc2cc(-c3csc(C)n3)c(=O)oc2c1 | > 100 | > 100 | > 100 | > 100 | > 100 | > 100 | > 100 | > 100 | > 100 | > 100 | > 100 | – | > 100 | > 100
C=C1C(=O)OC2/C=C(\C)CC/C=C(\C)CC(OC(=O)/C(=C/CO)CO)[C@@H]12 (stereo not given in full) | 3.36 | 57.3 | 34.2 | > 100 | > 80.4 | 21.3 | 19.3 | 19 | 20.2 | 29 | 26.5 | 29.4 | 22.9 | 26.3
CC(C)(C)CN1[C@@H]2CCCC[C@H]2N(CC(C)(C)C)P1(=O)C(O)/C=C/c1ccccc1 (stereo not given in full) | > 100 | > 100 | > 100 | > 100 | 91.6 | > 100 | 93.7 | > 100 | > 100 | > 100 | > 100 | > 100 | > 100 | –
O=C(c1ccc(Cl)c(Cl)c1)N(C(=O)N1CCN(c2ccccc2)CC1)S(=O)(=O)c1ccccc1 | > 100 | > 100 | > 100 | 79.6 | 87.9 | > 100 | > 100 | > 100 | 62.8 | > 100 | > 100 | 96.2 | > 100 | > 100
CC[C@H]1C=CCC[C@@]2(C[C@@H]3CC[C@H]4[C@@H](C(=O)OCCCCCCCCCCCCCCCC(=O)N(CCCNC(C)=O)C[C@H](CCNC(C)=O)OC(C)=O)[C@@]5(CCC[C@@H](C)O5)NC(=[N+]34)N2)O1 | 3.25 | 3.42 | 3.52 | 3.12 | 2.94 | 3.44 | 3.3 | 3 | 3.05 | 2.09 | 3.5 | 3.19 | 2.98 | 2.87
CC1=NN(C(=O)CC(=O)Nc2ccc(Cl)cc2)C(=O)C1N=Nc1ccc(S(=O)(=O)c2ccc(N=NC3C(=O)N(C(=O)CC(=O)Nc4ccc(Cl)cc4)N=C3C)cc2)cc1 (stereo not given) | > 100 | > 100 | > 100 | > 100 | > 100 | > 100 | > 100 | > 100 | > 100 | > 100 | > 100 | > 100 | > 100 | > 100
O=S1(=O)c2ccccc2-c2nccc3ccnc1c23 | > 100 | – | 31.7 | > 100 | > 100 | > 100 | 85.3 | > 100 | > 100 | > 100 | 35.4 | 44 | > 100 | > 100
CC(C)(C)OC(=O)NC(Cc1ccc(OCc2ccccc2)cn1)C(=O)O (stereo not given) | > 100 | > 100 | – | – | > 100 | > 100 | > 100 | > 100 | > 100 | > 100 | > 100 | > 100 | > 100 | > 100
CN1C(=O)C(C#N)C2C[C@@]1(C)Oc1ccccc12 (stereo not given in full) | > 100 | > 100 | > 100 | > 100 | > 100 | > 100 | > 100 | > 100 | > 100 | > 100 | > 100 | > 100 | > 100 | –
CCOC(=O)CNC(=O)CNC(=O)CNC(=O)CNNc1c(OCc2ccccc2)c(=O)c1=O | > 100 | > 100 | > 100 | > 100 | > 100 | > 100 | > 100 | > 100 | > 100 | > 100 | > 100 | > 100 | > 100 | –
CC(CC(C)[C@H]1CCC2[C@H]3C(CC(=O)[C@@]21C)[C@@]1(C)CCC(O)C[C@H]1C[C@@H]3O)C(=O)O (stereo not given in full) | > 100 | > 100 | > 100 | – | > 100 | > 100 | > 100 | > 100 | > 100 | > 100 | > 100 | > 100 | > 100 | > 100
COC(=O)/C=C1/OC(c2ccc(C)cc2C)=CC1=O | 10.4 | – | 26.5 | 33.1 | 48.9 | 24.9 | 29.3 | 30.1 | 36.4 | > 100 | 29.9 | 61 | 28.3 | 33

Reference: PubChem BioAssay (NCI)
